Series [1] deals with MDCK cells. Kind of series: imaging of intracellular CO in living cells with fluorescent probe COP-1. Particulars: 10-50 μM, 37° C. and 8° C., bis-trifluoroacetate Salt. The format is cell-based, Canine. The method, then: A palladium CO-responsive small-molecule fluorescent probe (COP-1) was synthesised and carbonylation of the probe by CO confirmed as previously described.^41 A final concentration of 2 nM of COP-1 was added to each well of a 96-well plate containing 200 μL of Mg^2+ and Ca^2+ free phosphate solution (DPS, 37° C.). CORM-2, oCOm-19 and oCOm-21 (1-100 μM) were added to wells in triplicate, and zeroed against an equivalent volume of vehicle control added to COP-1. Emission spectra (λ 400-600 nm) were recorded at regular time intervals for one hour using a Spectromax Gemini fluorescent plate reader (Molecular Devices, Crawley, UK) at 37° C., (λex 475 nm, and the λem500 nm measured).
The ability of the CO donors to increase intracellular levels of CO was tested in Madin Darby Canine Kidney (MDCK) cells. […] Cells were incubated for 1 hour at either 8 or 37° C. then 1 μM COP-1 in DPS added per well and cells incubated for a further 15 minutes. Cells were imaged on a fluorescent inverted microscope (Nikon Eclipse Ti-E).

The test system of series [2] is MDCK cells.
Series [3] can be described thus: CO release by HPLC analysis of breakdown of CO donor to its CO depleted form. In kind it is physicochemical. How it is done: HPLC grade acetonitrile (CH3CN) was purchased from Merck Chemicals. MilliQ grade H2O was obtained from a Millipore purification system. HPLC grade trifluoroacetic acid (TFA) was purchased from Scharlau. HPLC analyses were conducted on an analytical RP-HPLC (Shimadzu LC-20AD equipped with an SPD-20A UV detector [210 and 254 nm]) using a Phenomenex Prodigy column (C-18, 5 μm, 3.00×250 mm) at 0.5 mL/min and heated to 40° C. Unless otherwise stated, the solvent system for all LC purposes was a mixture of A (0.05% TFA in H2O) and B (CH3CN). The method used was 10% to 100% B over 12.5 min, then 100% B for 2.5 min, unless otherwise stated.
In addition, the rate of CO release was measured in different physiological solutions at pH 7.4, 37° C.: phosphate buffered saline (PBS), Tris-sucrose buffer and UW solution using an amperiometric CO selective electrode (ISO-COP-2, World Precision Instruments (WPI), Inc, Sarasota, USA). The amount of CO released was recorded as the magnitude of electrode current generated on CO diffusion through a selective gas permeable membrane and oxidised to CO2 on the electrode. Current changes were recorded using a WPI TRB4100 4-channel free radical analyser with the poise potential set to 950 mV. […] The effect of pH upon the release of CO was assessed by adjusting the pH of Tris sucrose buffer to pH 6.6 using HCl and to pH 8.5 using NaOH. […]

In series [4] the test system is MDCK cells. Briefly: crystal violet cell adhesion (CVCA) cell toxicity assay. Conditions: Canis lupus familiaris, MDCK.
A further series concerns cardiac tissue. Briefly: static storage of cardiac tissue sections, TTC tissue viability stain. Set-up: species or system Sprague Dawley (SD) rats. Particulars: 3 μM in DMEM; 24 and 48 hours cool static storage. How it is done:
The following protocol was used to assess the ex vivo protective effects of the oCOm compounds in solid, non-perfused biological tissues. Male Sprague Dawley (SD) rats (280-310 g) were decapitated and the hearts rapidly excised. Hearts were cut into 1 mm thick sections and placed in 3 ml of DMEM in sterile 24 well tissue culture plates. Two tissues sections from each heart were immediately stained without storing, with 1% 2,3,5-Triphenyltetrazolium chloride (TTC) in glucose supplemented DMEM for 15 minutes at 37° C. with continuous shaking. Theses tissues represent the baseline tissue viability prior to storage. This staining technique requires active dehydrogenase enzymes to be present in order to convert TCC to a brick red formazan pigment. […] Tissues were then stained with TTC and fixed as above. One control tissue section was left unstained for comparison. All samples were sectioned transversely, photographed and staining intensity assessed qualitatively.

A short description of series [5]: oral bioavailability: blood carboxyhaemoglobin after oral gavage. In kind it is in vivo, Sprague Dawley rats. The method, then: Male Sprague Dawley rats (300-320 g) were orally dosed with either oCOm-19 (133.33 μmol/kg) or oCOm-21 (33.33 μmol/kg) in ultra-pure water by oral gavage. Animals were observed every 15 minutes for any changes in behaviour or signs of distress. Tail vein blood samples were collected in heparinised capillary tubes immediately prior to and at 1-3 hours post CO-donor administration. Blood gas analysis on each sample was performed using a Radiometer ABL800 Flex analyser.

Series [6] deals with isolated rat aortic rings. Briefly: isolated rat aortic ring vasorelaxation. Details: species or system Lewis rats. Conditions: rings pre-contracted with phenylephrine; 37° C.; hydrochloride. How it is done:
Transverse ring sections of aorta were isolated from male Lewis rats ([…], n=5-6 per group) under halothane anaesthesia and suspended under 2 g tension in an organ bath containing 10 mL of oxygenated (95% O2/5% CO2) Krebs Henseleit (KH) buffer containing 118 mM NaCl, 4.7 mM KCl, 1.2 mM KH2PO4, 1.2 mM MgSO4.7H2O, 22 mM NaHCO3, 11 mM glucose, 0.03 mM K^+ EDTA, and 2.5 mM CaCl2 as previously described.^43 Indomethacin (10 μM) was present in the buffer to exclude endogenous prostaglandins as potential modulators of vascular tone. Relaxation responses to oCOm-19 or oCOm-21 ([…]) were assessed using individual dosing in tissues pre-contracted with phenylephrine (0.1 μM). All results were subsequently expressed as a percentage of the maximal phenylephrine-induced contraction. Following repeat wash steps with Krebs Henseleit buffer, smooth muscle function and viability was confirmed by repeating the contractile response to phenylephrine. Aortic responses to individual EC50 concentrations of either CO donor in phenylephrine vasoconstricted rings were repeated separately, in the presence of the CO-chelator, myoglobin (5 μM) and the selective, irreversible inhibitor of sGC 1H-(1,2,4)oxadiazolo[4,3-a]quinoxalin-1-one, (ODQ, 10 μM), as previously described.^44

Another series in a line: Solubility in water. In kind it is physicochemical.
A further series concerns horse heart myoglobin. Briefly: carboxymyoglobin spectrophotometric assay (CO binding to myoglobin). The format is biochemical. Particulars: 25 to 400 μM; 5 to 90 minutes. The method, then: CO released from oCOm-19 and oCOm-21 was measured using an established carboxymyoglobin spectrophotometric assay,^39 adapted to a 96 well plate format to enable the simultaneous correction at all absorbance wavelengths arising from any potential interference from the donor compounds.^40 Freshly prepared horse heart myoglobin (66 μM) in a PBS solution (pH 7.4) was reduced with 10% w/v sodium dithionite and added to a 96 well plate. […] Absorption spectra (λ 500-600 nm) were run at ten minute intervals using a Spectramax 96-well spectrophotometer (Molecular Devices, Crawley, UK) at 37° C. CO gas saturated PBS (714 μM), was employed as a positive control.

The mark [7] stands for this setting: read-out: EC50 (μM), Active Compound.

The values below come from patent US11072584B2, “Carbon monoxide releasing norbornenone compounds” (OTAGO INNOVATION LIMITED, priority 2015, dated 2021).

Entries after “also recorded” stand apart in the source; their conditions may differ. Counter-ions that a name gives are not always drawn. Like-named read-outs stand apart in the source and are kept apart here.

As usually defined, the EC50 is the concentration giving half of the maximal effect.

As to `CC12C(=O)C(C)(C(c3ccccc3)=C1c1ccccc1)C1(Br)C(=O)N(CCNCCN)C(=O)C21` (centres unmarked) [oCOm-23, 2-(2-(2-Aminoethyl)aminoethyl)-3a-bromo-3a,4,7,7a-tetrahydro-4,7-dimethyl-5,6-diphenyl-4,7-methano-1H-isoindole-1,3,8(2H)-trione bis-trifluoroacetate Salt], the “intracellular CO, COP-1 / BODIPY fluorescence (in words)” value with MDCK cells [1] is on record as “Increased BODIPY fluorescence intensity; also recorded: increased intracellular CO levels”. For the same compound, the “cellular toxicity (in words)” value in the series with MDCK cells [2] was “increased toxicity”. For the same compound, the “time by which 50% of the donor CO maximum release capacity was depleted” value in [3] stood at 75 min. Moreover, the EC50 in the series on MDCK cells [4] (setting [7]) is 10.1 µM; in the series with MDCK cells [4] (read-out: EC50 (μM), Active Compound at 8° C.), over 200 µM.
Consider `CC12C(=O)C(C)(C(c3ccccc3)=C1c1ccccc1)C1C(=O)N(CCN)C(=O)C12.O=C(O)C(F)(F)F` (centres unmarked) [DB-21, 2-(4,7-Dimethyl-1,3,8-trioxo-5,6-diphenyl-3a,4,7,7a-tetrahydro-1H-4,7-methanoisoindol-2(2H)-yl)ethanaminium 2,2,2-trifluoroacetate], for which the “tissue viability by TTC (formazan) staining (in words)” value in the series on cardiac tissue is reported as “little staining was visible”.
Turning to `CC12C(=O)C(C)(C(c3ccccc3)=C1c1ccccc1)C1(Br)C(=O)N(CCC(=O)NCCN)C(=O)C21.Cl` (centres unmarked) [oCOm-19, N-(2-Aminoethyl)-3-(3a-bromo-4,7-dimethyl-1,3,8-trioxo-5,6-diphenyl-3a,4,7,7a-tetrahydro-1H-4,7-methanoisoindol-2(2H)-yl)propanamide hydrochloride], the “effect on circulating carboxyhaemoglobin (in words)” value in [5] (oCOm-19 and DB-13 133.3 μmol/kg, oCOm-21 33.3 μmol/kg, hydrochloride) is listed as “increase in circulating carboxyhaemoglobin”. Further, the “behaviour / signs of distress after oral dosing” value in [5] (observed every 15 minutes) is given as “body pressing behaviour indicative of abdominal discomfort”. Also, the “vasorelaxant response (in words)” value in [6] was “reversible, concentration-dependent vasorelaxant responses; also recorded: reversible, concentration-dependent vasorelaxation; also recorded: vasorelaxant effects”. For the same compound, the “solubility (in words)” value in the series “Solubility in water” (water or physiological buffers) is on record as “water soluble”. Moreover, the “Solubility in water at 21° C.” value in the series “Solubility in water” (water, 21° C.) was found to be 3200 µg/mL. For the same compound, in series [3], the “time by which 50% of the donor CO maximum release capacity was depleted” value is 40 min. For the same compound, in the series with MDCK cells [4] (setting [7]), the EC50 stood at 86 µM. Besides, the “carbonmonoxymyoglobin formation (in words)” value in the series with horse heart myoglobin is “time- and concentration-dependent increase in carbonmonoxymyoglobin formation”.
